Broadly, the solubility is the concentration that dissolves in the medium under given conditions. A high value points to much dissolved substance.

Converted amounts (≈) assume the structure as drawn.

Assay in the first series: not given
The following applies: temperature at which initiator has 10 hour half-life; cited from earlier work.
Regarding `CC(C)(N=NC(C)(C)C(=N)N)C(=N)N.Cl` [Sample V-50, 2,2′-azobis(2-amidinopropane) hydrochloride], the “10 hour ½ life temperature” value is 10 hour ½ life at 56 °C.

For `CC(C)(N=NC(C)(C)C(=O)NCCO)C(=O)NCCO` [VA-086, 2,2′-Azobis[2-methyl-N-(2-hydroxyethyl)propionamide]], the “10 hour ½ life temperature” value was 10 hour ½ life at 86 °C. As for `CCC(C)(C#N)N=NC(C)(C#N)CC` (centres unmarked) [Vazo-67, 2,2′-azobis(2-methylbutyronitrile)], the “10 hour ½ life temperature” value was 10 hour ½ life at 67 °C.

Turning to `N#CC1(N=NC2(C#N)CCCCC2)CCCCC1` [Vazo-88, 1,1′-Azobis(cyclohexanecarbonitrile)], the “10 hour ½ life temperature” value was 10 hour ½ life at 88 °C.

The nature of a further series: Monomer solubility in water (GC/MS of water phase). The following applies: @ 25° C.; monomer equilibrated with deionized water 24 hours. The class given is physicochemical. The method, then: Monomer Solubility in Water
Solubility of the monomers in water is determined by combining 5 g of monomer and 5 g of deionized water in a sealed 20 ml vial for 30 min, after which the sample is allowed to sit at room temperature for 24 hours to establish equilibrium and phase separation of monomer from water. The water phase was then removed and analyzed to determine the monomer concentration GC/MS (7890B GC with a 5977A MSD Mass Spectrophotometer), both from Agilent. Inlet temperature at 270 C. Ramp starting at 100° C. to 320° C. at 10 degrees per min. The mass spec was scanning from a molecular weight of 30-500. The GC column was a Agilent DB-SMS 30M×0.250 mm.
For `C=CC(=O)OCCOCCOCC` [SR256, 2-(2-ethoxyethoxy) ethyl acrylate], the Solubility in water was found to be 25330 µg/mL (≈ 135 mM). Consider “Polyethylene glycol 200 diacrylate [SR259]”, for which the Solubility in water came to 40680 µg/mL. As for “Polyethylene glycol 400 diacrylate [SR344]”, the Solubility in water result is reported as “soluble”.

As for “polyethylene glycol (600) diacrylate [SR610]”, the Solubility in water entry is on record as “soluble”.

The same series, now with this note: thermodynamic from solid; @ 25° C.; monomer equilibrated with deionized water 24 hours.
With `C=C(C)C(=O)OCCOC(=O)C(=C)C` [SR206, Ethylene glycol dimethacrylate], the solubility at 24 h was determined as 2400 µg/mL (≈ 12.1 mM). On to `C=CC(=O)OCC(C)(C)COC(=O)C=C` [SR247, Neopentyl glycol diacrylate], for which the concentration in solution (solubility at 24 h) came to 940 µg/mL (≈ 4.43 mM). `C=CC(=O)OCC(COC(=O)C=C)(COC(=O)C=C)COC(=O)C=C` [SR295, PENTAERYTHRITOL TETRAACRYLATE] registered a solubility at 24 h of 4230 µg/mL (≈ 12 mM).

Values taken from patent US10485739B2, “High strength microcapsules” (ENCAPSYS, LLC, priority 2014, dated 2019).
